Experimental data as given in patent US20220274979A1 (Bayer Pharma Aktiengesellschaft, priority 2018, published 2022).
pIC50: −log10 of the molar value.

Target: T1, hSOS1 (hSOS1-mediated loading of hK-RasG12C-GDP) (Homo sapiens, UniProt Q07889)
T1 construct: hSOS1 (amino acid 564-1049); made in house; host or cells: E. coli BL21 (DE3)
T1 sequence (Q07889 with tags, fused parts or gaps): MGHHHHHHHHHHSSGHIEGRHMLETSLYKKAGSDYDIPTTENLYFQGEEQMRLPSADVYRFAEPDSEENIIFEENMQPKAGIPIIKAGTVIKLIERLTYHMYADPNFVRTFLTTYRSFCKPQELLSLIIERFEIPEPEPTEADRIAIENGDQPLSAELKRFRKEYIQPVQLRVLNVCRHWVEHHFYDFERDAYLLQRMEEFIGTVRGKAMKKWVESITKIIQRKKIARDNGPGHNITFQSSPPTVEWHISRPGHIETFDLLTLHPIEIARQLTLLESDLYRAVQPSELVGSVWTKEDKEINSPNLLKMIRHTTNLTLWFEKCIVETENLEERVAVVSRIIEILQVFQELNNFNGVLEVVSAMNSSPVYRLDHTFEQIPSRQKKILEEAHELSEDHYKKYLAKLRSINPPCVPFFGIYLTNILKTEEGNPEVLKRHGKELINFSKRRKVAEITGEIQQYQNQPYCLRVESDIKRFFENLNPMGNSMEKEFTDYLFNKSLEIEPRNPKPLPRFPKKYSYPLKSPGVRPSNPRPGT
Assay: Biochemical Assay 3: hK-RasG12C activation assay by hSOS1 (loading with fluorescent GTP analog, HTRF)
Details: no GTP
Description: Biochemical Assay 3: hK-RasG12C Activation Assay by hSOS1
K-Ras is a small GTPase that can bind GDP and GTP. The guanine nucleotide exchange factor SOS1 catalyzes the activation of K-Ras by promoting the exchange of GDP to GTP. SOS1 binds to K-Ras-GDP thereby opening the GDP-binding pocket to facilitate GDP release. Rebinding of excess nucleotide leads to dissociation of the K-Ras-SOS1 intermediate complex leaving K-Ras loaded with the nucleotide.
This assay quantifies human SOS1-(hSOS1-)mediated loading of human K-Ras^G12C-GDP (hK-RasG12C-GDP) with a fluorescent GTP-analog. Detection of successful loading is achieved by measuring homogenous time-resolved fluorescence resonance energy transfer (HTRF) from antiGST-Terbium (FRET donor) bound to GST-hK-RasG12C (see below) to the loaded fluorescent GTP analog (FRET-acceptor).
The fluorescent GTP-analog EDA-GTP-Dy647P1 (2′/3′-O-(2-Aminoethyl-carbamoyl)-guanosine-5′-triphosphate labelled with Dy647P1 (Dyomics GmbH, Germany)) was synthesized by Jena Biosciences GmbH (Germany) and supplied as a 1 mM aqueous solution.
The assay buffer contained 10 mM HEPES pH 7.4 (Applichem), 150 mM NaCl (Sigma), 5 mM MgCl2 (Sigma), 1 mM DTT (Thermofisher), 0.05% BSA Fraction V, pH 7.0, (ICN Biomedicals), 0.0025% (v/v) Igepal (Sigma).
Concentrations of protein batches used were optimized to be within the linear range of the HTRF signal. A hRas working solution was prepared in assay buffer containing typically 100 nM GST-hK-RasG12C and 2 nM antiGST-Tb (Cisbio, France). A hSOS1 working solution was prepared in assay buffer containing typically 20 nM hSOS1 and 200 nM EDA-GTP-Dy647P1. An inhibitor control solution was prepared in assay buffer containing 200 nM EDA-GTP-Dy647P1 without hSOS1.
Fifty nl of a 100-fold concentrated solution of the test compound in DMSO were transferred into a black microtiter test plate (384 or 1536, Greiner Bio-One, Germany) For this, either a Hummingbird liquid handler (Digilab, Mass., USA) or an Echo acoustic system (Labcyte, Calif., USA) was used.
All steps of the assay were performed at 20° C. A volume of 2.5 μl of the hRas working solution was added to all wells of the test plate using a Multidrop dispenser (Thermo Labsystems). After 10 min. preincubation, 2.5 μl of the hSOS1 working solution were added to all wells except for those wells at the side of the test plate that were subsequently filled with 2.5 μl of the inhibitor control solution. After […] incubation the fluorescence was measured with a Pherastar (BMG, Germany) using the HTRF module (excitation 337 nm, emission 1: 620 nm, emission 2:665 nm).
IC50 values were calculated by 4-Parameter fitting using a commercial software package (Genedata Screener, Switzerland).

For `CC(=O)NC1CCN(c2cc3c(N[C@H](C)c4cccc(Br)c4)nc(C)nc3cn2)C1` (mixture of isomers) [Example 42, N-[1-(4-{[(1R)-1-(3-bromophenyl)ethyl]amino}-2-methylpyrido[3,4-d]pyrimidin-6-yl)pyrrolidin-3-yl]acetamide], the pIC50 was 6.44.

With `Cc1nc(NC(C)c2ccc(-c3ccccc3CN(C)C)s2)c2cc(C3CCN(C)C3=O)ncc2n1` (mixture of isomers) [Example 69, 3-(4-{[1-(5-{2-[(dimethylamino)methyl]phenyl}thiophen-2-yl)ethyl]amino}-2-methylpyrido[3,4-d]pyrimidin-6-yl)-1-methylpyrrolidin-2-one] the pIC50 was 6.85.

For `Cc1nc(NC(C)c2ccc(-c3ccccc3CN(C)C)s2)c2cc(C3(O)CCN(C)C3=O)ncc2n1` (mixture of isomers) [Example 85, 3-(4-{[1-(5-{2-[(dimethylamino)methyl]phenyl}thiophen-2-yl)ethyl]amino}-2-methylpyrido[3,4-d]pyrimidin-6-yl)-3-hydroxy-1-methylpyrrolidin-2-one], the pIC50 was 6.67.

`CCOc1cc2c(NC(C)c3cccc4sccc34)nc(C)nc2cn1` (stereo not drawn) [Example 3, N-[1-(1-benzothiophen-4-yl)ethyl]-6-ethoxy-2-methylpyrido[3,4-d]pyrimidin-4-amine] was tested, and the pIC50 was 6.45.

`COc1cc2c(NC(C)c3cccc4sccc34)nc(C)nc2cn1` (stereo not drawn) [Example 4, N-[1-(1-benzothiophen-4-yl)ethyl]-6-methoxy-2-methylpyrido[3,4-d]pyrimidin-4-amine] gave a pIC50 of 6.26.

`CCOc1cc2c(N[C@H](C)c3cccc(Br)c3)nc(C)nc2cn1` [Example 5, N-[(1R)-1-(3-bromophenyl)ethyl]-6-ethoxy-2-methylpyrido[3,4-d]pyrimidin-4-amine] gave a pIC50 of 5.67.

Compound `CCOc1cc2c(N[C@H](C)c3cccc(Cl)c3)nc(C)nc2cn1` [Example 6] has a pIC50 of 5.77.

Work on `CCOc1cc2c(N[C@H](C)c3cccc(S(C)(=O)=O)c3)nc(C)nc2cn1` [Example 7, 6-ethoxy-2-methyl-N-{(1R)-1-[3-(methylsulfonyl)phenyl]ethyl}pyrido[3,4-d]pyrimidin-4-amine] yielded a pIC50 of 5.62.

In the case of `COc1cc2c(N[C@H](C)c3ccc(F)c(Cl)c3)nc(C)nc2cn1` [Example 8], the pIC50 was < 4.70.

`Cc1nc(N[C@H](C)c2ccc(F)cc2)c2cc(F)ncc2n1` [Example 9] was tested, and the pIC50 was < 4.70.

`Cc1nc(N[C@H](C)c2ccc(F)cc2)c2cc(OCC3CCOCC3)ncc2n1` [Example 11, N-[1R)-1-(4-fluorophenypethyl]-2-methyl-6-(tetrahydro-2H-pyran-4-ylmethoxy)-pyrido[3,4-d]pyrimidin-4-amine] showed a pIC50 of 5.60.

With `COc1cc2c(N[C@H](C)c3ccc(F)c(C4CC4)c3)nc(C)nc2cn1` [Example 12] the pIC50 was 5.09.

For `CCOc1cc2c(N[C@H](C)c3ccc(Br)cc3)nc(C)nc2cn1` [Example 13, N-[(1R)-1-(4-bromophenyl)ethyl]-6-ethoxy-2-methylpyrido[3,4-d]pyrimidin-4-amine], the pIC50 was 5.10.

`COc1cc2c(NC(C)c3cccc4c3cnn4C)nc(C)nc2cn1` (stereo not drawn) [Example 14, 6-methoxy-2-methyl-N-[1-(1-methyl-1H-indazol-4-yl)ethyl]pyrido[3,4-d]pyrimidin-4-amine] showed a pIC50 of 4.90.

`Cc1nc(N[C@H](C)c2ccc(F)cc2)c2cc(OC(C)C)ncc2n1` [Example 15] was tested, and the pIC50 was 5.06.

For `COc1cc2c(NC(C)c3cccc4nn(C)cc34)nc(C)nc2cn1` (stereo not drawn) [Example 17, 6-methoxy-2-methyl-N-[1-(2-methyl-2H-indazol-4-yl)ethyl]pyrido[3,4-d]pyrimidin-4-amine], the pIC50 was ≤ 4.40.

With `CCOc1cc2c(N[C@H](C)c3ccc(C#N)cc3)nc(C)nc2cn1` [Example 18, 4-{(1R)-1-[(6-ethoxy-2-methylpyrido[3,4-d]pyrimidin-4-yl)amino]ethyl}benzonitrile] the pIC50 was 5.34.

For `Cc1nc(N[C@H](C)c2cccc(Br)c2)c2nc(OCc3ccccc3)ncc2n1` [Example 20, 6-(benzyloxy)-N-[(1R)-1-(3-bromophenyl)ethyl]-2-methylpyrimido[5,4-d]pyrimidin-4-amine], the pIC50 was ≤ 4.40.

For `Cc1nc(N[C@H](C)c2cccc(Br)c2)c2nc(N(C)C)ncc2n1` [Example 21], the pIC50 was ≤ 4.40.

With `Cc1nc(N[C@H](C)c2cccc(Br)c2)c2nc(N3CCOCC3)ncc2n1` [Example 22, N-[(1R)-1-(3-bromophenyl)ethyl]-2-methyl-6-(morpholin-4-yl)pyrimido[5,4-d]pyrimidin-4-amine] the pIC50 was 4.90.

For `CCOc1ncc2nc(C)nc(N[C@H](C)c3cccc(Br)c3)c2n1` [Example 23, N-[(1R)-1-(3-bromophenyl)ethyl]-6-ethoxy-2-methylpyrimido[5,4-d]pyrimidin-4-amine], the pIC50 was 5.48.

With `COc1ncc2nc(C)nc(N[C@H](C)c3cccc(Br)c3)c2n1` [Example 24, N-[(1R)-1-(3-bromophenyl)ethyl]-6-methoxy-2-methylpyrimido[5,4-d]pyrimidin-4-amine] the pIC50 was < 4.70.

In the case of `Cc1nc(N[C@H](C)c2cccc(Br)c2)c2nc(Oc3ccccc3)ncc2n1` [Example 25, N-[(1R)-1-(3-bromophenyl)ethyl]-2-methyl-6-phenoxypyrimido[5,4-d]pyrimidin-4-amine], the pIC50 was < 4.70.

In the case of `COCCOc1ncc2nc(C)nc(N[C@H](C)c3cccc(Br)c3)c2n1` [Example 26, N-[(1R)-1-(3-bromophenyl)ethyl]-6-(2-methoxyethoxy)-2-methylpyrimido[5,4-d]pyrimidin-4-amine], the pIC50 was < 4.70.

Work on `Cc1nc(N[C@H](C)c2cccc(Br)c2)c2nc(N3CCOCC3)ccc2n1` [Example 27, N-[(1R)-1-(3-bromophenyl)ethyl]-2-methyl-6-(morpholin-4-yl)pyrido[3,2-d]pyrimidin-4-amine] yielded a pIC50 of 4.97.

`COc1ccc2nc(C)nc(N[C@H](C)c3cccc(Br)c3)c2n1` [Example 28, N-[(1R)-1-(3-bromophenyl)ethyl]-6-methoxy-2-methylpyrido[3,2-d]pyrimidin-4-amine] was tested, and the pIC50 was < 4.70.

In the case of `CCOc1ccc2nc(C)nc(N[C@H](C)c3cccc(Br)c3)c2n1` [Example 29, N-[(1R)-1-(3-bromophenyl)ethyl]-6-ethoxy-2-methylpyrido[3,2-d]pyrimidin-4-amine], the pIC50 was < 4.70.

`COCCOc1ccc2nc(C)nc(N[C@H](C)c3cccc(Br)c3)c2n1` [Example 30, N-[(1R)-1-(3-bromophenyl)ethyl]-6-(2-methoxyethoxy)-2-methylpyrido[3,2-d]pyrimidin-4-amine] was tested, and the pIC50 was ≤ 4.56.

`Cc1nc(N[C@H](C)c2cccc(Br)c2)c2nc(N(C)C)ccc2n1` [Example 31] was tested, and the pIC50 was < 4.70.

`Cc1nc(N[C@H](C)c2cccc(Br)c2)c2nc(Oc3ccccc3)ccc2n1` [Example 32, N-[(1R)-1-(3-bromophenyl)ethyl]-2-methyl-6-phenoxypyrido[3,2-d]pyrimidin-4-amine] was tested, and the pIC50 was < 4.70.

In the case of `Cc1nc(N[C@H](C)c2cccc(Br)c2)c2nc(OCc3ccccc3)ccc2n1` [Example 33, 6-(benzyloxy)-N-[(1R)-1-(3-bromophenyl)ethyl]-2-methylpyrido[3,2-d]pyrimidin-4-amine], the pIC50 was < 4.70.

For `Cc1nc(N[C@H](C)c2cccc(Br)c2)c2cc(F)ncc2n1` [Example 34, N-[(1R)-1-(3-bromophenyl)ethyl]-6-fluoro-2-methylpyrido[3,4-d]pyrimidin-4-amine], the pIC50 was < 4.70.

`Cc1nc(NC(C)c2ccc(Br)s2)c2cc(F)ncc2n1` (stereo not drawn) [Example 35] was tested, and the pIC50 was < 4.70.
